Data on 76 compounds can be found in patent US7745483B2, “2-Halofuryl-thienyl-3-carboxamides” (Bayer CropScience AG, priority 2004, dated 2010).

One data set has as its system Botrytis cinerea. Nature of the data set: Botrytis test (bean)/protective. The class given is in vivo. Particulars: 48 h, protective, application rate 500 g/ha, evaluation 2 days after inoculation, read-out: Efficacy in %. On the procedure: [table] To produce a suitable preparation of active compound, 1 part by weight of active compound was mixed with the stated amounts of solvent and emulsifier, and the concentrate was diluted with water to the desired concentration. To test for protective activity, young plants are sprayed with the preparation of active compound at the stated application rate. After the spray coating has dried on, 2 small pieces of agar colonized by Botrytis cinerea are placed onto each leaf. The inoculated plants are placed in a dark chamber at about 20° C. and 100% relative atmospheric humidity. The size of the infected areas on the leaves is evaluated 2 days after the inoculation. 0% means an efficacy which corresponds to that of the control, whereas an efficacy of 100% means that no infection is observed.

Data set [1] in a line: logP determination by HPLC on a reverse-phase column (EEC Directive 79/831 Annex V.A8). Type of data set: physicochemical. Particulars: pH 2.3, reverse-phase column (C 18), 43° C.; for chromatographic logP: reverse-phase HPLC column (C 18). On the procedure: The logP values given were determined in accordance with EEC Directive 79/831 Annex V.A8 by HPLC (High Performance Liquid Chromatography) on a reverse-phase column (C 18). Temperature: 43° C. Mobile phases for the determination in the acidic range (pH 2.3): 0.1% aqueous phosphoric acid, acetonitrile; linear gradient from 10% acetonitrile to 90% acetonitrile. Calibration was carried out using unbranched alkan-2-ones (having 3 to 16 carbon atoms) with known logP values (determination of logP values by retention times using linear interpolation between two successive alkanones).

Consider `O=C(Nc1ccccc1-c1ccc(Cl)c(Cl)c1)c1ccoc1I` [drawing 238], for which, in the data set on Botrytis cinerea, the pest or weed control at 500 g/ha came out at 100%.
As for `CC(C[Si](C)(C)C)c1ccccc1NC(=O)c1ccoc1I` (stereo not shown) [Example 16], the logP (in general, the decadic logarithm of the partition coefficient of the neutral form, usually between octanol and water) in data set [1] is reported as 4.45.
`O=C(Nc1ccccc1-c1ccc(C(F)(F)F)cc1)c1ccsc1I` [Example 26] had a logP in data set [1] of 3.89.
On the same count and under the same terms, the result for `O=C(Nc1ccc(F)cc1-c1ccc(Cl)c(Cl)c1)c1ccsc1I` [Example 24] reads 4.13; that for `O=C(Nc1ccccc1-c1cccc(Cl)c1F)c1ccsc1I` [Example 33], 3.67; that for `O=C(Nc1ccccc1-c1ccc(Cl)cc1)c1ccoc1I` [Example 11], 3.62.
Take `O=C(Nc1ccccc1-c1ccc(Br)cc1)c1ccsc1I` [drawing 241]: in the data set with Botrytis cinerea, the pest or weed control at 500 g/ha turned out to be 100%.
As for `CC(C)CC(C)c1sccc1NC(=O)c1ccsc1I` (stereo not shown) [Example 43], in data set [1], the lipophilicity (logP) is recorded as 4.22.
In the case of `C[Si](C)(C)CCc1ccccc1NC(=O)c1ccsc1I` [drawing 226], the pest or weed control at 500 g/ha in the data set on Botrytis cinerea was found to be 100%.
In the case of `O=C(Nc1ccccc1-c1ccc(Br)c(F)c1)c1ccsc1I` [drawing 230], in the data set with Botrytis cinerea, the pest or weed control at 500 g/ha was determined as 100%.
Regarding `O=C(Nc1ccccc1-c1ccc(Cl)cc1)c1ccoc1I` [drawing 236], the pest or weed control at 500 g/ha in the data set with Botrytis cinerea was 100%.
Regarding `CC(C)CC(C)c1ccccc1NC(=O)c1ccoc1I` (stereo not shown) [Example 2, N-[2-(1,3-dimethylbutyl)phenyl]-2-iodo-3-furamide], the chromatographic logP (usually a lipophilicity value derived from retention on a column) in data set [1] was determined as 3.88.
In the case of `O=C(Nc1ccncc1-c1ccc(Cl)c(Cl)c1)c1ccsc1I` [drawing 228], the pest or weed control at 500 g/ha with Botrytis cinerea was 100%.
For the compound `C=C(CC(C)(C)C)c1ccccc1NC(=O)c1ccoc1I` [Example 15], the logP in data set [1] is 4.49.
Turning to `O=C(Nc1ccccc1-c1ccc(Br)c(F)c1)c1ccsc1I` [Example 22], in data set [1], the logP came out at 3.89.
Turning to `CC1CC(C)(C)c2cccc(NC(=O)c3ccsc3I)c21` (stereo not shown) [drawing 249], the pest or weed control at 500 g/ha in the data set with Botrytis cinerea stood at 100%.
Compound `O=C(Nc1ccccc1-c1ccc(Cl)c(F)c1)c1ccsc1I` [Example 9] had a logP in data set [1] of 3.82.
As for `C[Si](C)(C)CCc1sccc1NC(=O)c1ccsc1I` [drawing 259], the pest or weed control at 500 g/ha with Botrytis cinerea was 100%.
In data set [1], `C=C(CC(C)C)c1ccccc1NC(=O)c1ccsc1I` [Example 5] displayed a lipophilicity (logP) of 4.57.
Take `Cc1ccc(-c2ccccc2NC(=O)c2ccsc2I)cc1F` [drawing 248]: the pest or weed control at 500 g/ha in the data set on Botrytis cinerea amounted to 100%.
`CON=Cc1ccc(-c2ccccc2NC(=O)c2ccsc2I)cc1F` [Example 40]: in data set [1], the logP worked out at 3.79.
Regarding `CC(C[Si](C)(C)C)c1ccccc1NC(=O)c1ccoc1I` (stereo not shown) [drawing 244], the pest or weed control at 500 g/ha with Botrytis cinerea stood at 100%.
In the case of `O=C(Nc1ccccc1-c1ccc(C(F)(F)F)cc1)c1ccsc1I` [drawing 246], the pest or weed control at 500 g/ha in the data set on Botrytis cinerea was determined as 100%.
`O=C(Nc1ccccc1-c1ccc(Br)cc1)c1ccoc1I` [drawing 237]: the pest or weed control at 500 g/ha with Botrytis cinerea is 100%.
For `CC(C)CC(C)c1ccccc1NC(=O)c1ccsc1Br` (stereo not shown) [Example 27], in data set [1], the logP was 4.24.
`CC(CC(C)(C)C)c1ccccc1NC(=O)c1ccsc1Br` (stereo not shown) [drawing 254]: the pest or weed control at 500 g/ha in the data set on Botrytis cinerea turned out to be 100%.
On to `O=C(Nc1ccncc1-c1ccc(Cl)c(Cl)c1)c1ccsc1I` [Example 34], for which the logP in data set [1] was 2.20.
With `CC(CC(C)(C)C)c1ccccc1NC(=O)c1ccoc1I` (stereo not shown) [Example 7], the log partition coefficient (logP) in data set [1] was found to be 4.16.
The compound `Cc1ccc(-c2ccccc2NC(=O)c2ccsc2I)cc1F` [Example 25] yielded a log partition coefficient (logP) in data set [1] of 3.89.
Consider `CC(C)(C)CCc1cc(F)ccc1NC(=O)c1ccsc1I` [Example 37], for which the log partition coefficient (logP) in data set [1] is on record as 4.16.
As to `O=C(Nc1ccccc1-c1ccc(Cl)cc1)c1ccsc1I` [drawing 240], the pest or weed control at 500 g/ha with Botrytis cinerea stood at 100%.
Regarding `O=C(Nc1ccccc1-c1cccc(Cl)c1Cl)c1ccsc1I` [Example 23], in data set [1], the logP came to 4.01.
As to `O=C(Nc1ccccc1-c1ccc(Cl)c(Cl)c1)c1ccsc1I` [drawing 242], the pest or weed control at 500 g/ha in the data set on Botrytis cinerea worked out at 100%.
On to `CC(C[Si](C)(C)C)c1cc(F)ccc1NC(=O)c1ccsc1I` (stereo not shown) [Example 36], for which the logP in data set [1] came out at 4.67.
On to `CC(CC(C)(C)C)c1ccccc1NC(=O)c1ccsc1I` (stereo not shown) [drawing 225], for which, in the data set with Botrytis cinerea, the pest or weed control at 500 g/ha worked out at 100%.
In the case of `CC(C)CC(C)c1cc(F)ccc1NC(=O)c1ccsc1I` (stereo not shown) [drawing 250], the pest or weed control at 500 g/ha in the data set with Botrytis cinerea is 100%.
As for `CC(C)CC(C)c1ccccc1NC(=O)c1ccsc1Br` (stereo not shown) [drawing 253], in the data set with Botrytis cinerea, the pest or weed control at 500 g/ha amounted to 100%.
In data set [1], `O=C(Nc1ccccc1-c1ccc(Cl)cc1)c1ccsc1Br` [Example 29] yielded a logP of 3.99.
Regarding `O=C(Nc1ccccc1-c1ccc(Br)cc1)c1ccoc1I` [Example 3], in data set [1], the logP is recorded as 3.72.
Same read-out and setting: in the case of `CC(C)(C)CCc1sccc1NC(=O)c1ccsc1I` [Example 42] it was 4.44; in that of `CC(CC(C)(C)C)c1ccccc1NC(=O)c1ccsc1I` (stereo not shown) [Example 6], 4.42.
Consider `O=C(Nc1ccccc1-c1ccc(Br)cc1Cl)c1ccsc1I` [drawing 229], for which, in the data set with Botrytis cinerea, the pest or weed control at 500 g/ha is 100%.
`O=C(Nc1ccc(F)cc1-c1ccc(Cl)c(Cl)c1)c1ccsc1I` [drawing 247]: in the data set with Botrytis cinerea, the pest or weed control at 500 g/ha was 100%.
Consider `C[Si](C)(C)CCc1ccccc1NC(=O)c1ccsc1I` [Example 18], for which the logP in data set [1] is listed as 4.43.
For the compound `CC(C)(C)CCc1cc(F)ccc1NC(=O)c1ccsc1I` [drawing 235], the pest or weed control at 500 g/ha in the data set with Botrytis cinerea turned out to be 100%.
As to `O=C(Nc1ccccc1-c1cccc(Cl)c1F)c1ccsc1I` [drawing 233], the pest or weed control at 500 g/ha in the data set with Botrytis cinerea came out at 100%.
With `O=C(Nc1ccccc1-c1cccc(Cl)c1Cl)c1ccsc1I` [drawing 232], the pest or weed control at 500 g/ha with Botrytis cinerea worked out at 100%.
`O=C(Nc1ccccc1-c1ccc(C(F)(F)F)cc1Cl)c1ccsc1I` [Example 19] gave a logP in data set [1] of 4.18.
Turning to `O=C(Nc1ccccc1-c1ccc(Cl)c(F)c1)c1ccsc1I` [drawing 243], the pest or weed control at 500 g/ha with Botrytis cinerea worked out at 100%.
The compound `C=C(CC(C)(C)C)c1ccccc1NC(=O)c1ccsc1I` [Example 14] gave a log partition coefficient (logP) in data set [1] of 4.78.
`CC(C)(C)CCc1ccccc1NC(=O)c1ccsc1Br` [Example 45] gave a logP in data set [1] of 4.30.
Take `CC(C)CC(C)c1ccccc1NC(=O)c1ccoc1I` (stereo not shown) [drawing 223]: in the data set with Botrytis cinerea, the pest or weed control at 500 g/ha amounted to 99%.
Same read-out and setting: the result for `O=C(Nc1ccccc1-c1ccc(Cl)cc1)c1ccsc1Br` [drawing 255] reads 100%.
For the compound `CO/N=C/c1ccc(-c2ccccc2NC(=O)c2ccsc2I)cc1F` [drawing 251], the pest or weed control at 500 g/ha in the data set on Botrytis cinerea was determined as 100%.
On to `O=C(Nc1ccccc1-c1ccc(Br)cc1Cl)c1ccsc1I` [Example 21], for which, in data set [1], the logP was found to be 4.28.
For the compound `O=C(Nc1ccc(F)cc1-c1cccc(Cl)c1F)c1ccsc1I` [drawing 234], the pest or weed control at 500 g/ha with Botrytis cinerea is 100%.
As for `CC(C)CC(C)c1sccc1NC(=O)c1ccsc1I` (stereo not shown) [drawing 252], the pest or weed control at 500 g/ha in the data set on Botrytis cinerea was determined as 100%.
In data set [1], `CC(C)CC(C)c1ccccc1NC(=O)c1ccsc1I` (stereo not shown) [Example 1, N-[2-(1,3-dimethylbutyl)phenyl]-2-iodothiophene-3-carboxamide] came in with a chromatographic logP of 4.14.
Turning to `O=C(Nc1ccccc1-c1ccc(Cl)c(Cl)c1)c1ccsc1I` [Example 13], the lipophilicity (logP) in data set [1] is on record as 4.11.
The same measure, in the same setting: in the case of `O=C(Nc1ccc(F)cc1-c1cccc(Cl)c1F)c1ccsc1I` [Example 35] it was 3.69.
The compound `CC(CC(C)(C)C)c1ccccc1NC(=O)c1ccsc1Br` (stereo not shown) [Example 28] had a logP in data set [1] of 4.51.
Turning to `O=C(Nc1ccccc1-c1ccc(Cl)c(Cl)c1)c1ccoc1I` [Example 10], the lipophilicity (logP) in data set [1] is listed as 3.89.
Same read-out and setting: the result for `O=C(Nc1ccccc1-c1ccc(Br)c(Cl)c1)c1ccsc1I` [Example 32] reads 4.21; that for `O=C(Nc1ccccc1-c1ccc(Br)c(F)c1)c1ccoc1I` [Example 4], 3.58.
As to `O=C(Nc1ccccc1-c1ccc(Cl)c(F)c1)c1ccoc1I` [drawing 239], in the data set on Botrytis cinerea, the pest or weed control at 500 g/ha worked out at 100%.
Turning to `CC(C)(C)CCc1cc(F)ccc1NC(=O)c1ccsc1Br` [Example 44], the logP in data set [1] is recorded as 4.30.
As to `CC(C[Si](C)(C)C)c1ccccc1NC(=O)c1ccsc1I` (stereo not shown) [drawing 245], the pest or weed control at 500 g/ha in the data set on Botrytis cinerea was 100%.
Regarding `CC(CC(C)(C)C)c1ccccc1NC(=O)c1ccoc1I` (stereo not shown) [drawing 224], the pest or weed control at 500 g/ha in the data set on Botrytis cinerea is 100%.
`CC(C[Si](C)(C)C)c1ccccc1NC(=O)c1ccsc1I` (stereo not shown) [Example 17] gave a logP in data set [1] of 4.69.
For `CC(C)(C)CCc1ccccc1NC(=O)c1ccsc1I` [Example 20], in data set [1], the logP is 4.17.
Consider `O=C(Nc1ccccc1-c1ccc(F)c(Cl)c1)c1ccsc1I` [Example 38], for which, in data set [1], the logP was 3.79.
`O=C(Nc1ccccc1-c1ccc(Cl)cc1)c1ccsc1I` [Example 8] returned a logP in data set [1] of 3.93.
`O=C(Nc1ccccc1-c1ccc(Cl)c(Cl)c1)c1ccsc1Br` [Example 30] yielded a lipophilicity (logP) in data set [1] of 4.25.
Consider `CC(C)CC(C)c1cc(F)ccc1NC(=O)c1ccsc1I` (stereo not shown) [Example 41], for which, in data set [1], the logP is listed as 4.17.
In data set [1], `O=C(Nc1ccccc1-c1ccc(Cl)c(F)c1)c1ccsc1Br` [Example 31] showed a logP of 3.91.
Compound `CC1CC(C)(C)c2cccc(NC(=O)c3ccsc3I)c21` (stereo not shown) [Example 39] gave a log partition coefficient (logP) in data set [1] of 4.09.
